Assay results reported in patent US8227616B2, “Cyanopyridine antibacterial agents and methods of use thereof” (Wisconsin Alumni Research Foundation, priority 2006, dated 2012).
In brackets after ≈: the same amount, converted by molar mass.

Legend:
S. aureus ATCC 10390 [1] = assay: Agar overlay TTC assay; assay type: cell-based, Staphylococcus aureus; conditions: macroarray copies, 15 mL agar
Text: To take advantage of the spatially-addressed nature of the macroarray format, an agar overlay assay was employed that utilizes TTC (triphenyl tetrazolium chloride) as a visualization agent (FIG. 2[…].; Lu, A. T.; Solas, D. W.; Gore, […].; Coffin, […].; Wang, […].; Look, G. C.; Campbell, […]. Antimicrob. Agents Chemother. 1998, 1447-1453. Unfortunately, during macroarray synthesis the planarity of the support is not fully maintained, and small wrinkles develop in this particular assay. This problem was solved by using an adaptation of the common Western Blot technique to copy the macroarray members from the support to fresh wrinkle-free sheets while maintaining the spatially-addressed nature. This transfer can be completed in 90 seconds and four copies can be made at a time, however to date, it is applicable only for smaller macroarrays (6 cm×6 cm, 16 spots). The full macroarray was easily divided into these dimensions. The copies allowed for replicates to be made, and the original, which cannot be used in the assay, is used to validate the compounds by LCMS. As an added feature, the sensitivity of the assay was tuned by simply changing the amount of agar applied to the array. The copies generated in the assay can also be easily used to screened against multiple organisms. […] This assay format also took advantage of the spatially addressed nature of the arrays (FIG. 2C). […]

S. aureus ATCC 10390 [2] = assay: Kirby-Bauer disk diffusion assay on compound spots from cleaved macroarray; assay type: cell-based, Staphylococcus aureus; conditions: loadings 30 μg/spot, 18 h incubation
Procedure: While the heterocyclic libraries were being synthesized, the chalcone macroarrays were analyzed using various direct assay techniques such as the Kirby-Bauer disk diffusion assay (FIG. 2E). Bauer, A. W.; Kirby, […].; Turck, M. Technical Bulletin of the Registry of Medical Technologists 1966, 36, 49-52. For this assay, the macroarray members are punched out from the membrane, cleaved from the support with TFA vapor, neutralized with ammonia vapor, and then placed on an agar bed inoculated with S. aureus. After incubating overnight, different diameters of zones of inhibition are measured as a factor of potency as well as solubility in the medium. Ammonia vapor neutralization was key in the disk diffusion assay, otherwise residual TFA vapor created a false positive signature. However, in this method, macroarrays have to be made in triplicate one for a replicate and one for compound characterization. We first evaluated test chalcone macroarrays (3) in antibacterial assays against S. aureus. Because the macroarrays were prepared on cellulose filter paper, we had convenient access to the compounds in disk form for standard disk diffusion assays. Compound spots were punched out of the macroarrays, subjected to vapor phase cleavage with acid (TFA), and neutralized (NH3) to afford disks containing ca. 30 μg of adsorbed compound [8]. These disks were manually placed on lawns of S. aureus, and zones of inhibition were measured after an 18 h incubation period. […] However, this antibacterial assay format had drawbacks: (1) the entire sample of compound was consumed during the assay, and thus replicate arrays needed to be synthesized to confirm activity, and (2) manipulating large numbers of compound disks was relatively labor intensive. Compound spots were cleaved with TFA and neutralized with NH3 as described herein. […] Compound spots were placed onto the agar, the plate was incubated at 37° C. for 18 h, and the diameters of the zones of inhibition were measured. […] Compound spots were subjected to the TFA cleavage conditions described above. The spots were next subjected to NH3 vapor to neutralize any remaining TFA. […] Vials containing the spots (or intact macroarrays) were placed inside a small evaporating dish, and this was placed into the NH4OH solution. The Pyrex dish was covered, and NH3 vapor was allowed to slowly diffuse into the vials. After 1 h, the vials were removed from the NH3 chamber, and the spots were allowed to stand open in a fume hood for at least 15 min to vent prior to analysis in the following assays. This afforded dry, paper disks containing adsorbed compound. […] The plates were removed, and the diameters of the zones of inhibition were measured in mm using a ruler (see FIG. 1A).

[3] = system: B. subtilis subsp. spizizenii ATCC 6633; assay: MIC determination, species selectivity; assay type: cell-based; conditions: Bacillus subtilis, ATCC6633; authentic sample, only trans isomers of chalcones; error reflects step size
Procedure: (§1) Each compound from Table 3 was tested for inhibitory activity at 2.5, 5, 7.5, 10, 15, 20, 25, and 30 μM in the susceptible overlaid strains: B. subtilis ATCC 6633, S. epidermidis ATCC 12228, and K. pneumoniae ATCC 4352. MIC assays were run in quadruplicate as described above (with shaking).

[4] = system: S. epidermidis ATCC 12228; assay: MIC determination, species selectivity; assay type: cell-based; conditions: Staphylococcus epidermidis, ATCC12228; authentic sample, only trans isomers of chalcones; error reflects step size
Procedure: as §1

MIC [3]: 8.8 ± 1.2 µM (≈ 3.17 µg/mL) | MIC [4]: 3.8 ± 1.2 µM (≈ 1.37 µg/mL)
SMILES: O=C(/C=C/c1cc(C(F)(F)F)cc(C(F)(F)F)c1)c1cccc(O)c1 [Compound 4Bv, 3′-hydroxy-3,5-bis(trifluoromethyl)chalcone]
relative activity in agar overlay TTC assay (S. aureus ATCC 10390 [1]): most active | Zones of inhibition (S. aureus ATCC 10390 [2]): 22 mm
